Experimental data reported in US20080311126A1, “Antisense Oligonucleotides Directed to Ribonucleotide Reducatase R2 and Uses Thereof in Combination Therapies for the Treatment of Cancer” (Genesense Technologies, Inc, priority 2004, published 2008).
Oligonucleotides are written 5' to 3', each unit as a sugar letter and its base; * is a phosphorothioate linkage, no mark a phosphodiester; rarer units and linkages stand in square brackets, end groups in braces. Plain capitals give the bases only. d = 2'-deoxy (DNA)

Assays:
Test in all cases: Relative colony forming efficiency (Example 17, Table 13)
Format in all cases: cell-based, human
[1] = test system: HCT116 colon cell carcinoma; conditions: averages of 2-8 determinations
Description: (§1) Colony forming efficiency was determined using standard protocols. […] The test oligonucleotides were added to cell cultures in the presence of 2.5 μg of DOTMA/DOPE (Lipofectin; Life Technologies, Inc.) for four hours. The oligonucleotide was tested at 0.2 μM unless otherwise indicated. Controls were the cultures treated with lipofectin but without the oligonucleotide. […] Surviving cells were visualized by methylene blue staining, and colonies were scored. In some experiments cell aliquots were removed from the culture and viability was determined using the trypan blue exclusion test. Results were analyzed as percent of surviving cells compared to control cells. To test the antisense effects of many of these sequences as phosphorthioate deoxyribonucleotides, they were examined in relative colony forming experiments conducted as described in Example 16 with a series of human tumour cell lines. The results (shown as % inhibition of colony forming ability) obtained with cancer cells derived from the bladder, breast, lung, colon, pancreas, prostate, liver and cervix, are shown in Table 13. The specific cell lines employed are as follows: […]

[2] = test system: HepG2 hepatocellular carcinoma; conditions: averages of 2-8 determinations
Description: as §1

[3] = test system: PC-3 prostrate cell adenocarcinoma; conditions: averages of 2-8 determinations
Description: as §1

[4] = test system: T24 bladder cell carcinoma; conditions: averages of 2-8 determinations
Description: as §1

A549 lung cell carcinoma = conditions: averages of 2-8 determinations
Description: as §1

[5] = test system: MDA PaCa-2 pancreatic cell carcinoma; conditions: MIA PaCa-2 pancreatic cell carcinoma; averages of 2-8 determinations
Description: as §1

[6] = test system: MDA-MB-231 breast cell adenocarcinoma; conditions: averages of 2-8 determinations
Description: as §1

Substance | Reduced relative colony forming efficiency, HCT116 (% inhibition of colony forming ability) [1] [%] | Reduced relative colony forming efficiency, HepG2 (% inhibition of colony forming ability) [2] [%] | Reduced relative colony forming efficiency, PC-3 (% inhibition of colony forming ability) [3] [%] | Reduced relative colony forming efficiency, T24 (% inhibition of colony forming ability) [4] [%] | Reduced relative colony forming efficiency, A549 (% inhibition of colony forming ability) (A549 lung cell carcinoma) [%] | Reduced relative colony forming efficiency, MIA PaCa-2 (% inhibition of colony forming ability) [5] [%] | Reduced relative colony forming efficiency, MDA-MB-231 (% inhibition of colony forming ability) [6] [%]
GAGAAATAAAATGAAACGGC (antisense dG*dA*dG*dA*dA*dA*dT*dA*dA*dA*dA*dT*dG*dA*dA*dA*dC*dG*dG*dC) [AS-II-2164-20] | 50.08 | 93.07 | 83.36 | 61.84 | 91.15 | 89.36 | 69.03
GCACATCTTCAGTTCATTTA (antisense dG*dC*dA*dC*dA*dT*dC*dT*dT*dC*dA*dG*dT*dT*dC*dA*dT*dT*dT*dA) [AS-II-1362-20] | 78.47 | 80.41 | 77.38 |  | 83.9 | 44.14 | 70.22
ATGGAAAAAAAAAATCAGCC (antisense dA*dT*dG*dG*dA*dA*dA*dA*dA*dA*dA*dA*dA*dA*dT*dC*dA*dG*dC*dC) [AS-II-1390-20] | 62.18 | 90.21 | 76.76 | 61.13 | 88.31 | 82.77 | 66.89
CGGGTCCGTGATGGGCGCGA (antisense dC*dG*dG*dG*dT*dC*dC*dG*dT*dG*dA*dT*dG*dG*dG*dC*dG*dC*dG*dA) [AS-II-217-20] | 61.85 | 99.55 | 87.41 | 65.02 |  | 87.38 | 52.7
TTAGAAGTCAGCATCCAAGG (antisense dT*dT*dA*dG*dA*dA*dG*dT*dC*dA*dG*dC*dA*dT*dC*dC*dA*dA*dG*dG) [AS-II-1345-20] | 65.7 | 75.42 | 89.58 | 51.26 | 73.1 | 77.39 | 94.11
TGCCTCCGACCCTTCCCATT (antisense dT*dG*dC*dC*dT*dC*dC*dG*dA*dC*dC*dC*dT*dT*dC*dC*dC*dA*dT*dT) [AS-II-14-20] |  | 88.4 | 92.76 | 77.59 |  | 47.93 | 91.24
AS-II-218220 (antisense dC*dG*dT*dT*dG*dA*dG*dG*dA*dA*dA*dA*dT*dA*dC*dA*dG*dT*dG*dA) | 77.66 | 95.48 | 85.91 | 67.76 | 90.97 | 56.43 | 84.95
AACCGGAAAAGAAAATGCCT (antisense dA*dA*dC*dC*dG*dG*dA*dA*dA*dA*dG*dA*dA*dA*dA*dT*dG*dC*dC*dT) [AS-II-890-20] |  |  | 87.93 | 82.07 | 81.6 | 66.02 | 88.2
TTAGTGGTCAGGAGAATGTA (antisense dT*dT*dA*dG*dT*dG*dG*dT*dC*dA*dG*dG*dA*dG*dA*dA*dT*dG*dT*dA) [AS-II-1819-20] |  | 83.89 | 85.46 | 53.74 |  | 20.02 | 90.68
TCAGGCAAGCAAAATCACAG (antisense dT*dC*dA*dG*dG*dC*dA*dA*dG*dC*dA*dA*dA*dA*dT*dC*dA*dC*dA*dG) [AS-II-1001-20] | 55.58 | 90.36 | 85.94 | 86.11 | 71.36 | 64.21 | 82.17
CACACAACCTACTTACACCA (antisense dC*dA*dC*dA*dC*dA*dA*dC*dC*dT*dA*dC*dT*dT*dA*dC*dA*dC*dC*dA) [AS-II-2372-20] | 64.7 |  | 86.06 | 61.13 | 96.41 | 94.36 | 90.09
ACCCTTCCCATTGGCTGCGC (antisense dA*dC*dC*dC*dT*dT*dC*dC*dC*dA*dT*dT*dG*dG*dC*dT*dG*dC*dG*dC) [AS-II-6-20] |  | 97.89 | 59.21 | 73.55 |  | 95.15 | 85.4
TTCATGGTGTGGCTAGTTGG (antisense dT*dT*dC*dA*dT*dG*dG*dT*dG*dT*dG*dG*dC*dT*dA*dG*dT*dT*dG*dG) [AS-II-1438-20] |  |  | 83.96 | 43.7 | 51.27 | 42.13 | 69.06
ATTAAAATCTGCGTTGAAGC (antisense dA*dT*dT*dA*dA*dA*dA*dT*dC*dT*dG*dC*dG*dT*dT*dG*dA*dA*dG*dC) [AS-II-1700-20] |  |  | 90.63 | 70.94 | 77.28 | 34.52 | 30.75
GACATCACTCCCATCCTCTG (antisense dG*dA*dC*dA*dT*dC*dA*dC*dT*dC*dC*dC*dA*dT*dC*dC*dT*dC*dT*dG) [AS-II-1302-20] | 71.98 |  | 79.01 | 70.56 | 93.17 | 23.86 | 92.2
GGGCACATCTTCAGTTCATT (antisense dG*dG*dG*dC*dA*dC*dA*dT*dC*dT*dT*dC*dA*dG*dT*dT*dC*dA*dT*dT) [AS-II-1364-20] | 77.29 |  | 79.01 | 66.59 | 95.59 | 59.34 | 93.87
